Reference: EP0550007A2, “Eseroline derivatives having anticholinesterase activity, a process for their preparation and pharmaceutical compositions containing them” (priority 1991, dated 1993)

How the values were obtained:
[1] = antagonist activity against the stimulating effect of an anticholinergic substance (scopolamine); assay type: in vivo, mice SWISS; details: scopolamine subcutaneously injected, 1mg/kg, mice
Procedure: As the central anticholinergic stimulating agent the scopolamine was used subcutaneously injected to groups of 10 mice SWISS ([…]) at the dose of 1mg/kg.
At this dose the substance under question caused in all the animals a marked increase (80-100%) of the spontaneous motility, evaluated according to the above described method .

[2] = antagonist effect on the stimulating effect of scopolamine (motor activity), ESE series; assay type: in vivo; details: scopolamine at the dose of 1 mg/kg
Procedure: This is countered by the oral administration of 2.5 mg of ESE001, ESE002, ESE003, ESE004.

mouse [3] = assay: acute toxicity, oral LD50 in the mouse; details: oral, suspension in 2% carboxymethylcellulose, observation period 7 days
Text: The mouse was used (Swiss strain having the average weight of the male mice being 26 g and 22 g that of the female mice: 5+5 animals per dose, observation period: 7days) The oral LD50 (suspension in 2% carboxymethylcellulose) were reported hereinbelow: Tab.2

[4] = test system: acetylcholinesterase activity (AchE); assay: in vivo anticholinesterase activity (blood and brain, Ellman colorimetric method); parameters: species or system Wistar male rats; details: rats, oral, 1.5 to 4 mg/kg; sacrificed after 20, 60 and 120 minutes
Procedure: The derivatives, under question and physostigmine suspended in 2% carboxymethylcellulose, were orally administered to groups of Wistar male rats (average weight about 250 g).
On the base of the obtained results in preliminary trials, the doses utilized for the comparison were comprised beween 0.2 and 0.4 mg/kg for physostigmine and between 1.5 and 4 mg/kg for the eseroline derivatives under question.
The groups of treated rats were sacrificed after 20, 60, and 120 minutes and the blood and the brain of each animal were immediately cooled to 0°C and maintained at this temperature during the successive treatments.
The acetylcholinesterase activity (AchE) was determined by using the Ellman et al's quick colorimetric method (Biochem. Pharmacol., 7, 88, 1961) and it was expressed as enzymatic inhibition percentage.

[5] = effect on the succinylcholine curarization duration (corneal reflex); assay type: in vivo; details: i.v. administration of 0.6 mg/kg, rabbit; compared with physostigmine
mouse [6] = assay: spontaneous motility (Dews' method modified according to Carminati); assay type: in vivo, mouse (SWISS strain)
Text: The Dews' method was utilized, as modified according to Carminati (Arch. Int. Pharmacodyn. et Thér. 181, 68,1969).

Chain of acetylcholinesterase activity (AchE) (P37136 32-574 limits assumed): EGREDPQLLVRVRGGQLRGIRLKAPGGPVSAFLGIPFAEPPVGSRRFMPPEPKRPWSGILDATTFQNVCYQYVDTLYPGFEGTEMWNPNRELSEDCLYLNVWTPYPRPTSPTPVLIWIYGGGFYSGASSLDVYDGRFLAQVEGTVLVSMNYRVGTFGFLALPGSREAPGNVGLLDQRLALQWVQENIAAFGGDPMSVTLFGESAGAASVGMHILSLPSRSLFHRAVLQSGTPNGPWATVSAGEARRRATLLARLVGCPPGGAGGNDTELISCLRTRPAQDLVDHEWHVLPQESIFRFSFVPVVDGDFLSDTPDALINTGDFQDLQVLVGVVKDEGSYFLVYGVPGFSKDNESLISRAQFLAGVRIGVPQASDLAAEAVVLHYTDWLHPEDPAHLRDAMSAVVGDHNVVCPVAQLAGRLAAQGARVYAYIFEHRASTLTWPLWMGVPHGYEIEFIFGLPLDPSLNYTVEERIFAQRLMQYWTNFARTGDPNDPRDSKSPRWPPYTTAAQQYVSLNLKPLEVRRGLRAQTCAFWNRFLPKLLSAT

Molecule | increase of the spontaneous motility [1] | increase in motor activity (stimulating effect) [2] [%] | LD50 in the mouse (mouse [3]) | inhibitory activity of the acetylcholinesterase [4] | anticholinesterase effect with respect to the succinylcholine curarizing action [5] | reduction of spontaneous motility (mouse [6]; oral, starting from minimal doses of 3.5-5 mg/kg, on average) [%] | minimal doses causing a marked reduction of spontaneous motility (mouse [6]; orally administered) [mg/kg]
CN1[C@@H]2C[C@@H](OC(=O)[C@H](CO)c3ccccc3)C[C@H]1[C@@H]1O[C@@H]12 [scopolamine, reference compound] | 80-100% | 100 | – | – | – | – | –
eseroline L-prolylpyrrolidinamide [MGT2] | – | – | 342,2 ± 11,16 mg/kg | evident dose dipendent and reversible inhibitory activity | the same anticholinesterase effect | ~-39 | 3.5 to 5
